Target: GST tagged truncated human mutant G2019S LRRK2 (Homo sapiens (Human), UniProt Q5S007, G2019S)
Assay: LRRK2 Km ATP LanthaScreen Assay
Assay type: biochemical
Conditions: G2019S LRRK2, 134 μM ATP (Km ATP), mean values; for IC50: read-out: LRRK2 pIC50 (converted)
Method: General Experimental Information: • Unless otherwise noted, all reactions are magnetically stirred. Unless otherwise noted, when diethyl ether is used in the experiments described below, it is Fisher ACS certified material and is stabilized with BHT. Unless otherwise noted, “concentrated” and/or “solvent removed under reduced pressure” means evaporating the solvent from a solution or mixture using a rotary evaporator or vacuum pump. Unless otherwise noted, flash chromatography is carried out on a Teledyne Isco (Lincoln, NE), Analogix (Burlington, WI), or Biotage (Stockholm, SWE) automated chromatography system using a commercially available cartridge as the column. Columns may be purchased from Teledyne Isco, Analogix, Biotage, Varian (Palo Alto, CA), or Supelco (Bellefonte, PA) and are usually filled with silica gel as the stationary phase. Reverse phase prep-HPLC conditions, where used, can be found at the end of each experimental section. Aqueous solutions were concentrated on a Genevac (Ipswich, ENG) or by freeze-drying/lyophilization. Unless otherwise noted, all LRRK2 pIC50 data presented in tables refers to the LRRK2 G2019S Km ATP LanthaScreen™ assay (Life Technologies Corp., Carlsbad, CA) that is described in the Biological Assay section.
The pIC50 values reported herein were measured as follows.
Biological Assay: LRRK2 Km ATP LanthaScreen™ Assay
Compound potency against LRRK2 kinase activity was determined using LanthaScreen™ technology from Life Technologies Corporation (Carlsbad, CA) using a GST20 tagged truncated human mutant G2019S LRRK2 in the presence of the fluorescein-labeled peptide substrate LRRKtide® (LRRK2 phosphorylated ezrin/radixin/moesin (ERM)), also from Life Technologies. The data presented for the Km ATP LanthaScreen™ Assay represents mean IC50 values based on several test results and may have reasonable deviations depending on the specific conditions and reagents used. Km is the Michaelis constant of an enzyme and is defined as the concentration of native substrate (ATP for a kinase) which permits the enzyme to achieve half Vmax (Vmax=rate of reaction when the enzyme is saturated with substrate). IC50 (half-maximal inhibitory concentration) represents the concentration of inhibitor required to inhibit LRRK2 kinase activity by 50%. Assays were performed in the presence of 134 μM ATP (Km ATP). Upon completion, the assay was stopped, and phosphorylated substrate detected with a terbium (Tb)-labeled anti-pERM antibody (cat. no. PV4898). The compound dose response was prepared by diluting a 10 mM stock of compound to a maximum concentration of 9.99 μM in 100% DMSO, followed by custom fold serial dilution in DMSO nine times. 20 nL of each dilution was spotted via a Labcyte Echo onto a 384-well black-sided plate (Corning 3575) followed by 15 μl of a 1.25 nM enzyme solution in 1× assay buffer (50 mM Tris pH 8.5, 10 mM MgCl2, 0.01% Brij-35, 1 mM EGTA, 2 mM dithiothreitol, 0.05 mM sodium orthovanadate). Following a 15-minute incubation period at RT, the kinase reaction was started with the addition of 5 μl of 400 nM fluorescein-labeled LRRKtide® (LRRK2 phosphorylated ezrin/radixin/moesin (ERM)) peptide substrate and 134 μM ATP solution in 1× assay buffer. The reaction was allowed to progress at ambient temperature for 90 minutes. The reaction was then stopped by the addition of 20 μl of TR-FRET Dilution Buffer (Life Technologies, Carlsbad, CA) containing 2 nM Tb-labeled anti-phospho LRRKtide® (LRRK2 phosphorylated ezrin/radixin/moesin (ERM)) antibody and 10 mM EDTA (Life Technologies, Carlsbad, CA). After an incubation period of 1 h at RT, the plate was read on an EnVision® multimode plate reader (Perkin Elmer, Waltham, MA) with an excitation wavelength of 337 nm (Laser) and a reading emission at both 520 and 495 nm. Compound IC50 values were interpolated from nonlinear regression best-fits of the log of the final compound concentration, plotted as a function of the 520/495-nm emission ratio using activity base “Abase”). […]

GST tagged truncated human mutant G2019S LRRK2, sequence (Q5S007 970-2527 G2019S): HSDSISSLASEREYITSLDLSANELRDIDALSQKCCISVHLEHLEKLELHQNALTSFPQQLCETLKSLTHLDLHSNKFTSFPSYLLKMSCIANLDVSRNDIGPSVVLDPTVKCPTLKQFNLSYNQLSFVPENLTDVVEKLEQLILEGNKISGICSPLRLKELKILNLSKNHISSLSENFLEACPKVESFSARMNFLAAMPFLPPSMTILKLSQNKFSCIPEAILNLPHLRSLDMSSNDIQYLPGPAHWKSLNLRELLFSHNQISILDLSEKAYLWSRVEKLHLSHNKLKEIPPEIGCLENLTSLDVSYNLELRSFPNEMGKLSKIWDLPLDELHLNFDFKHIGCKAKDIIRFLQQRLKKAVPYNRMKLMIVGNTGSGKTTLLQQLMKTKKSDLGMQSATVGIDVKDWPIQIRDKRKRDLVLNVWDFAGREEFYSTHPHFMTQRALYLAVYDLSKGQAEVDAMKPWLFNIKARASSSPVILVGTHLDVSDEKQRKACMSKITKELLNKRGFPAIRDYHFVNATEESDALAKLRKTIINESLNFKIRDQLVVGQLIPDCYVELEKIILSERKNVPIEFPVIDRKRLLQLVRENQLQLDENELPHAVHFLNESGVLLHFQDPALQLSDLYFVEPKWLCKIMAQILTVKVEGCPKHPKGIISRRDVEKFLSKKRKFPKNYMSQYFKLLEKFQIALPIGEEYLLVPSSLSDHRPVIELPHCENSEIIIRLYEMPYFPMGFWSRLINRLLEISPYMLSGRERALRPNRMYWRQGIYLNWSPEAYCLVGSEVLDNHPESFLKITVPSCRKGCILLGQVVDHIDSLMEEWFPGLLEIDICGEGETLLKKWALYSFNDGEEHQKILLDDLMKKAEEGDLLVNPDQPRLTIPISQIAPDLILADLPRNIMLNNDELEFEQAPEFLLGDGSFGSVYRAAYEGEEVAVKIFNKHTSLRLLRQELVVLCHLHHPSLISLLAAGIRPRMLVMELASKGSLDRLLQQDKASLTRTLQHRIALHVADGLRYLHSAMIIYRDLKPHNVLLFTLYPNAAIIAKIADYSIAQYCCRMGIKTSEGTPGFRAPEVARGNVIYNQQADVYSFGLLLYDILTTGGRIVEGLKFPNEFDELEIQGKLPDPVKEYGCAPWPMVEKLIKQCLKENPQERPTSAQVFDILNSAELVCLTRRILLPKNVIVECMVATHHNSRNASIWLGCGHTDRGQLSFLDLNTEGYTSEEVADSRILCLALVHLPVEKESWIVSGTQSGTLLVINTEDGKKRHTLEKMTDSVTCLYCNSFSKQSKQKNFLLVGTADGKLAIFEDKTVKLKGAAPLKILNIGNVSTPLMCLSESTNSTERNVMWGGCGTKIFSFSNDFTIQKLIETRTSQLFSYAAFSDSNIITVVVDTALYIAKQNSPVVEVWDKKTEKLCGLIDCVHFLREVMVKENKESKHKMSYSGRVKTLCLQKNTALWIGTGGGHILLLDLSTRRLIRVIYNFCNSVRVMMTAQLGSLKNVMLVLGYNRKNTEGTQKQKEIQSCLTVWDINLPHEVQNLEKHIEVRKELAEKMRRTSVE

SMILES | IC50 | LRRK2 pIC50
O=S1(=O)CCC(N2CCC(c3cc4nc(Nc5cnn(CC(F)F)c5Cl)ncc4cc3Cl)CC2)C1 (racemic) [Ex-4.6, (S) and (R) 3-(4-(6-chloro-2-((5-chloro-1-(2,2-difluoroethyl)-1H-pyrazol-4-yl)amino)quinazolin-7-yl)piperidin-1-yl)tetrahydrothiophene 1,1-dioxide] | < 0.631 nM | 
O=S1(=O)CC(N2CC[C@@H](c3cc4nc(Nc5cnn(C6CC6)c5Cl)ncc4cc3Cl)[C@H](F)C2)C1 (single isomer, unassigned) |  | 8.52
O=S1(=O)CC(N2CC[C@H](c3cc4nc(Nc5cnn(C6CC6)c5Cl)ncc4cc3Cl)[C@@H](F)C2)C1 (single isomer, unassigned) |  | 9.02
CCn1ncc(Nc2ncc3cc(Cl)c(C4CC45CC5)cc3n2)c1C (single isomer, unassigned) [Ex-1.1, (S) or (R) 6-chloro-N-(1-ethyl-5-methyl-1H-pyrazol-4-yl)-7-(spiro[2.2]pentan-1-yl)quinazolin-2-amine] | 11.7 nM | 
CCn1ncc(Nc2ncc3cc(Cl)c(C4CC45CC5)cc3n2)c1C (single isomer, unassigned) [Ex-1.2, (S) or (R) 6-chloro-N-(1-ethyl-5-methyl-1H-pyrazol-4-yl)-7-(spiro[2.2]pentan-1-yl)quinazolin-2-amine] | 186 nM | 
CC(C)(O)CN1CCC(c2cc3nc(Nc4cnn(C5CC5)c4)ncc3cc2Cl)C1 (single isomer, unassigned) [Ex-1.4, (S) or (R) 1-(3-(6-chloro-2-((1-cyclopropyl-1H-pyrazol-4-yl)amino)quinazolin-7-yl)pyrrolidin-1-yl)-2-methylpropan-2-ol] | 24 nM | 
Cc1c(Nc2ncc3cc(Cl)c(C4CCN(C5CC[C@H]5O)CC4)cc3n2)cnn1C1CC1 (single isomer, unassigned) [Ex-1.5, (1R,2S) or (1R,2R) or (1S,2S) or (1S,2R) 2-(4-(6-chloro-2-((1-cyclopropyl-5-methyl-1H-pyrazol-4-yl)amino)quinazolin-7-yl)piperidin-1-yl)cyclobutan-1-ol] |  | >9.20
Cc1c(Nc2ncc3cc(Cl)c(C4CCN(C5CC[C@@H]5O)CC4)cc3n2)cnn1C1CC1 (single isomer, unassigned) [Ex-1.6, (1R,2S) or (1R,2R) or (1S,2S) or (1S,2R) 2-(4-(6-chloro-2-((1-cyclopropyl-5-methyl-1H-pyrazol-4-yl)amino)quinazolin-7-yl)piperidin-1-yl)cyclobutan-1-ol] |  | >9.20
C[C@@]1(N2CCC(c3cc4nc(Nc5cnn(C6CC6)c5Cl)ncc4cc3Cl)CC2)COC[C@@H]1O (single isomer, unassigned) [Ex-1.7, (3R,4R)- or (3S,4S)-4-(4-(6-chloro-2-((5-chloro-1-cyclopropyl-1H-pyrazol-4-yl)amino)quinazolin-7-yl)piperidin-1-yl)-4-methyltetrahydrofuran-3-ol] |  | >9.20
C[C@@]1(N2CCC(c3cc4nc(Nc5cnn(C6CC6)c5Cl)ncc4cc3Cl)CC2)COC[C@@H]1O (single isomer, unassigned) [Ex-1.8, (3R,4R)- or (3S,4S)-4-(4-(6-chloro-2-((5-chloro-1-cyclopropyl-1H-pyrazol-4-yl)amino)quinazolin-7-yl)piperidin-1-yl)-4-methyltetrahydrofuran-3-ol] | 1.55 nM | 
CC(C)(O)CN1CCC(c2cc3nc(Nc4cnn(C5CC5)c4)ncc3cc2Cl)C1 (single isomer, unassigned) [Ex-1.9, (S) or (R) 1-(3-{6-chloro-2-[(1-cyclopropyl-1H-pyrazol-4-yl)amino]quinazolin-7-yl}pyrrolidin-1-yl)-2-methylpropan-2-ol] | 30.2 nM | 
CC(C)(O)CN1CCC(c2cc3nc(Nc4cnn(C5CC5)c4)ncc3cc2Cl)C1 (single isomer, unassigned) [Ex-1.10, (S) or (R) 1-(3-{6-chloro-2-[(1-cyclopropyl-1H-pyrazol-4-yl)amino]quinazolin-7-yl}pyrrolidin-1-yl)-2-methylpropan-2-ol] | 28.2 nM | 
C[C@@H]1CC(c2cc3nc(Nc4cnn(C5CC5)c4Cl)ncc3cc2Cl)CCN1C1COC1 (single isomer, unassigned) [Ex-1.11, (S) or (R) 6-chloro-N-(5-chloro-1-cyclopropyl-1H-pyrazol-4-yl)-7-(2-methyl-1-(oxetan-3-yl)piperidin-4-yl)quinazolin-2-amine] | < 0.631 nM | 
C[C@H]1CC(c2cc3nc(Nc4cnn(C5CC5)c4Cl)ncc3cc2Cl)CCN1C1COC1 (single isomer, unassigned) [Ex-1.12, (S) or (R) 6-chloro-N-(5-chloro-1-cyclopropyl-1H-pyrazol-4-yl)-7-(2-methyl-1-(oxetan-3-yl)piperidin-4-yl)quinazolin-2-amine] | 0.741 nM | 
Cc1c(Nc2ncc3cc(Cl)c(C4CCN(C5COC5)[C@H](C)C4)cc3n2)cnn1C1CC1 (single isomer, unassigned) [Ex-1.13, (S) or (R) 6-chloro-N-(1-cyclopropyl-5-methyl-1H-pyrazol-4-yl)-7-(2-methyl-1-(oxetan-3-yl)piperidin-4-yl)quinazolin-2-amine] | 0.776 nM | 
Cc1c(Nc2ncc3cc(Cl)c(C4CCN(C5COC5)[C@@H](C)C4)cc3n2)cnn1C1CC1 (single isomer, unassigned) [Ex-1.14, (S) or (R) 6-chloro-N-(1-cyclopropyl-5-methyl-1H-pyrazol-4-yl)-7-(2-methyl-1-(oxetan-3-yl)piperidin-4-yl)quinazolin-2-amine] | < 0.631 nM | 
Cc1c(Nc2ncc3cc(Cl)c(C4CCN([C@@]5(C)COC[C@H]5O)CC4)cc3n2)cnn1C1CC1 (single isomer, unassigned) [Ex-1.15, (3S,4S) or (3R,4R) 4-(4-(6-chloro-2-((1-cyclopropyl-5-methyl-1H-pyrazol-4-yl)amino)quinazolin-7-yl)piperidin-1-yl)-4-methyltetrahydrofuran-3-ol] |  | 8.16
Cc1c(Nc2ncc3cc(Cl)c(C4CCN([C@]5(C)COC[C@@H]5O)CC4)cc3n2)cnn1C1CC1 (single isomer, unassigned) [Ex-1.16, (3S,4S) or (3R,4R) 4-(4-(6-chloro-2-((1-cyclopropyl-5-methyl-1H-pyrazol-4-yl)amino)quinazolin-7-yl)piperidin-1-yl)-4-methyltetrahydrofuran-3-ol] |  | >9.20
Cc1c(Nc2ncc3cc(Cl)c(C4CCN(C5(C)CCCC5O)CC4)cc3n2)cnn1C1CC1 (single isomer, unassigned) [Ex-1.19, (1R,2S) or (1S,2R) or (1S,2S) or (1R,2R) 2-(4-(6-chloro-2-((1-cyclopropyl-5-methyl-1H-pyrazol-4-yl)amino)quinazolin-7-yl)piperidin-1-yl)-2-methylcyclopentan-1-ol] |  | 7.59
Cc1c(Nc2ncc3cc(Cl)c(C4CCN(C5(C)CCCC5O)CC4)cc3n2)cnn1C1CC1 (single isomer, unassigned) [Ex-1.20, (1R,2S) or (1S,2R) or (1S,2S) or (1R,2R) 2-(4-(6-chloro-2-((1-cyclopropyl-5-methyl-1H-pyrazol-4-yl)amino)quinazolin-7-yl)piperidin-1-yl)-2-methylcyclopentan-1-ol] |  | 8.84
Cc1c(Nc2ncc3cc(Cl)c(C4CCN(C5CCCC5(F)F)CC4)cc3n2)cnn1C1CC1 (single isomer, unassigned) [Ex-1.21, (S) or (R) 6-chloro-N-(1-cyclopropyl-5-methyl-1H-pyrazol-4-yl)-7-[1-(2,2-difluorocyclopentyl)piperidin-4-yl]quinazolin-2-amine] | 1.86 nM | 
